How the values were obtained:
VEGF = experiment: ELISA of plasma VEGF pre- and post-treatment, Phase III TARGETs study; type: in vivo, human; settings: patients with advanced renal cell cancer, after 3 weeks of treatment, p=3.2E-5
[1] = system: advanced renal cell cancer; experiment: Progression-free survival by baseline VEGF level, Phase III TARGETs study; type: in vivo, human; settings: patients receiving sorafenib
Description: All analyses were carried out under IRB-approved protocols.
Measures of patient outcome found useful were time to death (TTD) and progression-free survival (PFS) using a Cox regression analysis. Baseline levels of VEGF were determined and changes in the baseline level were determined at week 18 of treatment. The effects observed were adjusted for age, gender, ECOG status or Motzer score. These adjustments were minimal.

`CNC(=O)c1cc(Oc2ccc(NC(=O)Nc3ccc(Cl)c(C(F)(F)F)c3)cc2)ccn1` [sorafenib] was tested, and the “change of VEGF levels from baseline” value (VEGF) was “increased significantly” and the “difference in PFS between patients with high (>250 pg/mL) or low (<250 pg/mL) baseline VEGF levels” value [1] was “no significant difference”.
